One data set deals with Rattus norvegicus. Nature of the data set: Toxicity in Wistar Han rat assessed as centrilobular hepatocyte hypertrophy at 100 mg/kg/day, po administered for 14 days. The data set is classed as organism-based. The conditions noted are these: hepatocytes, 336 h.
The next data set has as its target Cytochrome P450 2D6 (Homo sapiens, UniProt P10635). In words: Inhibition of CYP2D6 (unknown origin). The data set is classed as ADME.
Data set [1] is described as follows: Toxicity in dog assessed as increase in body temperature at 30 mg/kg, po administered as single dose. It counts as organism-based, Canis lupus familiaris. Particulars: in vivo.
Data set [2] can be described thus: Drug metabolism in human hepatocytes assessed as monooxidation. The data set is classed as ADME, cell-based, Hepatocyte.
Data set [3] is described as follows: Average plasma concentration in Wistar Han rat at 10 mg/kg, po administered as single dose measured on day 14. The conditions noted are these: in vivo. The data set is classed as ADME, organism-based.
Data set [4] can be described thus: Drug metabolism in human hepatocytes assessed as monooxidation and glucuronidation. The data set is classed as ADME, cell-based, Hepatocyte.
Another data set has as its system P-gp. In words: Substrate activity at p-gp (unknown origin) assessed as efflux ratio of permeability. The data set is classed as ADME. The conditions noted are these: human, not told.
The target of a further data set is CYP2C9 (Homo sapiens, UniProt P11712). In words: Inhibition of CYP2C9 (unknown origin) at 3 uM relative to control. It counts as ADME.
Data set [5] in a line: Drug metabolism in dog hepatocytes. The data set is classed as ADME, cell-based, Canis lupus familiaris, Hepatocyte.
Data set [6] in a line: Half life in dog at 0.363 mg/kg, iv and 0.737 mg/kg, po. It counts as ADME, organism-based, Canis lupus familiaris. Particulars: in vivo.
A short description of data set [7]: Drug metabolism in rat liver microsomes assessed as monooxidation at phenyl and pyridine moieties. The data set is classed as ADME. Background: Liver microsomes are vesicles of endoplasmic reticulum, rich in cytochrome P450 enzymes.
The next data set addresses Cytochrome P450 3A4 (Homo sapiens, UniProt P08684). Nature of the data set: Inhibition of CYP3A4 (unknown origin). The data set is classed as ADME.
Data set [8] in a line: Oral bioavailability in dog at 0.737 mg/kg. The conditions noted are these: in vivo. The data set is classed as ADME, organism-based, Canis lupus familiaris.
Data set [9] in a line: Unbound clearance in dog at 0.363 mg/kg, iv and 0.737 mg/kg, po. Particulars: in vivo. The data set is classed as ADME, organism-based, Canis lupus familiaris.
Data set [10] can be described thus: Toxicity in dog assessed as emesis at 30 mg/kg, po administered as single dose measured 30 mins post dose. It counts as organism-based, Canis lupus familiaris. Particulars: in vivo, 0.5 h.
Another data set has as its target T1, Cytochrome P450 2C8 (Homo sapiens, UniProt P10632).
T1 sequence (P10632 whole entry): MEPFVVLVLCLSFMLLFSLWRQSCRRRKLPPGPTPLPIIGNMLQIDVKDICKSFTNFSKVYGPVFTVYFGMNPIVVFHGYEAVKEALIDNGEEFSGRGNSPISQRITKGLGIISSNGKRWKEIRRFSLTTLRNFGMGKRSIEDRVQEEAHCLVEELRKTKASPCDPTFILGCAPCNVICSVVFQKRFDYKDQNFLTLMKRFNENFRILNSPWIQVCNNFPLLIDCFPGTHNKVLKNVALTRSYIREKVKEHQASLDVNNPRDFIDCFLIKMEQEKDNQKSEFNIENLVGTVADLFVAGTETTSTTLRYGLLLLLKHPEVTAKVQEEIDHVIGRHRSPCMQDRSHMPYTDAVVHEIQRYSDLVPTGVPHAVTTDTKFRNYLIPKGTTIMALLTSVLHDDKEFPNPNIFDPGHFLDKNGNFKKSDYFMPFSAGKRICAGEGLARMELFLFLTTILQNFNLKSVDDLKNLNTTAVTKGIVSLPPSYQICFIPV
In words: Inhibition of CYP2C8 (unknown origin). It counts as ADME.

A short description of data set [11]: Drug metabolism in rat hepatocytes assessed as monooxidation and glucuronidation. The data set is classed as ADME, cell-based, Hepatocyte.
A further data set deals with Cytochrome P450 2C9 (Homo sapiens, UniProt P11712). Nature of the data set: Inhibition of CYP2C9 (unknown origin). It counts as ADME.
Data set [12] is described as follows: Drug metabolism in dog liver microsomes. The data set is classed as ADME, Canis lupus familiaris.
Data set [13] in a line: Unbound Cmax in Wistar Han rat at 10 mg/kg, po […] measured on day 14. The data set is classed as ADME, organism-based. The conditions noted are these: in vivo.
In the next data set the target is T2, BCRP (ABCG2) (Homo sapiens, UniProt Q9UNQ0).
T2 sequence (Q9UNQ0 whole entry): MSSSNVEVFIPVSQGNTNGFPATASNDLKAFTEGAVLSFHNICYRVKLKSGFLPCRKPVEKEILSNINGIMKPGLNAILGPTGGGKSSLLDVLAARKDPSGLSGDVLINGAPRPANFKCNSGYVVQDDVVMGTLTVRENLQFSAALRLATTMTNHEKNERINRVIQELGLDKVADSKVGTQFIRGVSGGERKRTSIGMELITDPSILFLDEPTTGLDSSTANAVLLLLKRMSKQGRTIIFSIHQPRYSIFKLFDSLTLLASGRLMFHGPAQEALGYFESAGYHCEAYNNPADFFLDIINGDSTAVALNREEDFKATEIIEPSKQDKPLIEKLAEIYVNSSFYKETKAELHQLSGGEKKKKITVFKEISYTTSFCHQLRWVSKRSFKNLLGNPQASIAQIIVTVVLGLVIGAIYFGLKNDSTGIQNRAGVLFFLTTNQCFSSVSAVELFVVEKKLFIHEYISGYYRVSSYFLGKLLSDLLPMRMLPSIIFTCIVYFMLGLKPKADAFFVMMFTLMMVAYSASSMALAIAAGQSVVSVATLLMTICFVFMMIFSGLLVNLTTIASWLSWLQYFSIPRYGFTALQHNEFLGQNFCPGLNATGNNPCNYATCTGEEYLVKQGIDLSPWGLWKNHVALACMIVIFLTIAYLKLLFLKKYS
Nature of the data set: Substrate activity at BCRP (unknown origin) assessed as efflux ratio of permeability. The data set is classed as ADME. Particulars: not told.

Data set [14] can be described thus: Unbound clearance in dog at 1 mg/kg, iv and 3 mg/kg, po. It counts as ADME, organism-based, Canis lupus familiaris. Particulars: in vivo.

Some results are limits rather than exact numbers.

Sequence of CYP2C9 (P11712 whole entry): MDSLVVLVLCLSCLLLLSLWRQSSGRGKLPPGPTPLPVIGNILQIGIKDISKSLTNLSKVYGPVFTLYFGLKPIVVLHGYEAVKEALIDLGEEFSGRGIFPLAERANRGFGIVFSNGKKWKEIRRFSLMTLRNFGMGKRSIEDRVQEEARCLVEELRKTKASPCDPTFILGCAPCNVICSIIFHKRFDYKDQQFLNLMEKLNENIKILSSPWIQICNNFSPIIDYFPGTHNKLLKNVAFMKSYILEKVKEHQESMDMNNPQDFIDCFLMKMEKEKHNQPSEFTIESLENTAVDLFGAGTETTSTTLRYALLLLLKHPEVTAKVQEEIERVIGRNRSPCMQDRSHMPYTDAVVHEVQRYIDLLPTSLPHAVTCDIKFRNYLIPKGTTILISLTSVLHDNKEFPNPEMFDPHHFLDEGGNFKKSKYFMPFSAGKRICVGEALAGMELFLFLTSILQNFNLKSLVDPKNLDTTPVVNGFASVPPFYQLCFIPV
Sequence of Cytochrome P450 2C9 (P11712 whole entry): as above
Sequence of Cytochrome P450 2D6 (P10635 whole entry): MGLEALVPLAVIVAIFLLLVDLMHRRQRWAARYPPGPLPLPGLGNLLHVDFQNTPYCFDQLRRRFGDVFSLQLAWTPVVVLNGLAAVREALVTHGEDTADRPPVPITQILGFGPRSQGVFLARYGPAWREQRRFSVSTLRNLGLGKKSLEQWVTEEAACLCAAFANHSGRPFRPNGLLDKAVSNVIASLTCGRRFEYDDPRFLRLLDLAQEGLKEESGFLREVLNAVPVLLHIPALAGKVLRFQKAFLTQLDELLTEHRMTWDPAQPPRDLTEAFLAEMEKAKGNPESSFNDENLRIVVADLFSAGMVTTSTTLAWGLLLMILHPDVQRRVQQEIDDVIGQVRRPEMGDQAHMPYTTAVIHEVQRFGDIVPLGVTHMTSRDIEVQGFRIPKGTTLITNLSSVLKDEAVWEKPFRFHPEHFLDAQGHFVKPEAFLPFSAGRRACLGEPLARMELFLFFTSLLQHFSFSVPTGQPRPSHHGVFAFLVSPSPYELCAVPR
Sequence of Cytochrome P450 3A4 (P08684 whole entry): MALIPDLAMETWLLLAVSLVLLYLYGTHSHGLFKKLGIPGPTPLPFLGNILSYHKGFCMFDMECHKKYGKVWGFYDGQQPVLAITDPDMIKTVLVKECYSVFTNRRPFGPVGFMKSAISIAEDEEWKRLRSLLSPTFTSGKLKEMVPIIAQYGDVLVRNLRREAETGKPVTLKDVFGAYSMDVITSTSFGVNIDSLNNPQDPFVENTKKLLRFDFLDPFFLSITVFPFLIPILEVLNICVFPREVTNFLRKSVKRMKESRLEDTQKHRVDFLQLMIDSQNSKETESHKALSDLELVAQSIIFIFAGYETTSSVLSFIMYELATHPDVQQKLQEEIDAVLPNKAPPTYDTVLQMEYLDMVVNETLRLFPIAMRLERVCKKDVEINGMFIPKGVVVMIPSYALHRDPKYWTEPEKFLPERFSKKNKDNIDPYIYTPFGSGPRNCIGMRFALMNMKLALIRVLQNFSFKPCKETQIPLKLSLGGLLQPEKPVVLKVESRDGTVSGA

As usually defined, the IC50 is the concentration at which inhibition is half-maximal. A higher IC50 goes with weaker potency. Broadly, the efflux ratio is the permeability from basolateral to apical divided by that in the opposite direction, in the common usage. The term inhibition denotes the drop in the measured response relative to a control, in per cent. Read a high inhibition as strong suppression. One may read the half-life as how long it takes for the measured level to halve. Consider `O=S(=O)(Nc1ccc(C(F)(F)F)nc1)c1ccccc1C(F)(F)F`, for which the Activity result with Rattus norvegicus was “Non-Toxic”; in data set [10], “Toxic”. The IC50 is > 30 µM on Cytochrome P450 2D6, > 30 µM at Cytochrome P450 3A4, > 30 µM on Cytochrome P450 2C8 and 1.1 µM against Cytochrome P450 2C9. In [1], the deltaT was > 1.1 °C. Also, the Drug metabolism entry is given as “Metabolite_Detected” in [2]; “Metabolite_Detected” in data set [4]; “Metabolite_Notdetected” in data set [5]; “Metabolite_Detected” in [7]; “Metabolite_Detected” in data set [11]; “Metabolite_Notdetected” in [12]. This molecule returned a Cave in data set [3] of 422 nM. The values for the efflux ratio in the data set with P-gp and on BCRP (ABCG2) were 1.1 and 3.3, respectively. Besides, testing at 3 µM on CYP2C9 gave an inhibition of 24%. Also, in data set [6], the half-life was 103 h. In [8], the bioavailability came out at 104%. In data set [9], this molecule returned a CL free of 1.4 mL/min/kg. The fCmax in data set [13] stood at 530 nM.

For `O=S(=O)(Nc1cncc(C(F)(F)F)c1)c1ccccc1C(F)(F)F`, in data set [14], the CL free is 17.5 mL/min/kg.

These data come from ChEMBL document CHEMBL3853265 (Medchemcomm, 2016).
